Results from ChEMBL document CHEMBL3399932, “Synthesis of new N-benzylpiperidine derivatives as cholinesterase inhibitors with β-amyloid anti-aggregation properties and beneficial effects on memory in vivo” (Bioorg Med Chem, 2015).
The source made the active and inactive calls. The calls are words filed in the database; no cut-off is given here.

Tests used:
Cholinesterase = Cholinesterase (Equus caballus, UniProt P81908)
Acetylcholinesterase = Acetylcholinesterase (Electrophorus electricus, UniProt O42275)
Chain of Acetylcholinesterase (O42275 whole entry): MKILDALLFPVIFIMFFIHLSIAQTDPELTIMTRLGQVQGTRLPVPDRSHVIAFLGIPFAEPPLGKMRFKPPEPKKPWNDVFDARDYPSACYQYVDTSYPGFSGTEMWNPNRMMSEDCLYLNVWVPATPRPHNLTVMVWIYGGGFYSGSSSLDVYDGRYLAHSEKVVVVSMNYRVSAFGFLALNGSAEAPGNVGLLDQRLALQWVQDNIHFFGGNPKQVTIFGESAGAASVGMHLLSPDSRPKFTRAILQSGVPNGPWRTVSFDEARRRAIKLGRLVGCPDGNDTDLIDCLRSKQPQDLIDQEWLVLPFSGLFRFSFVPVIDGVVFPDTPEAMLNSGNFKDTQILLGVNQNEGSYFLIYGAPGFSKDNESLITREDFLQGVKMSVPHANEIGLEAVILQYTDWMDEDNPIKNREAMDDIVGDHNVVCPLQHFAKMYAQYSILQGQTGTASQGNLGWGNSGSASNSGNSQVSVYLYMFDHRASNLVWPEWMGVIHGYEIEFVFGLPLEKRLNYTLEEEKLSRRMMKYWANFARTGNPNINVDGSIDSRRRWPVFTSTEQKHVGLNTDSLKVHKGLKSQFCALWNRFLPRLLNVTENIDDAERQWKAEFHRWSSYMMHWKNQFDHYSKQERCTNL

[1] = target: Acetylcholinesterase (Electrophorus electricus) (UniProt O42275); experiment: Inhibition of electric eel AChE using acetylthiocholine iodide as substrate preincubated at 10^-4 mol/L for 5 mins by Ellman method
Chain of Acetylcholinesterase (Electrophorus electricus) (O42275 24-633 limits assumed): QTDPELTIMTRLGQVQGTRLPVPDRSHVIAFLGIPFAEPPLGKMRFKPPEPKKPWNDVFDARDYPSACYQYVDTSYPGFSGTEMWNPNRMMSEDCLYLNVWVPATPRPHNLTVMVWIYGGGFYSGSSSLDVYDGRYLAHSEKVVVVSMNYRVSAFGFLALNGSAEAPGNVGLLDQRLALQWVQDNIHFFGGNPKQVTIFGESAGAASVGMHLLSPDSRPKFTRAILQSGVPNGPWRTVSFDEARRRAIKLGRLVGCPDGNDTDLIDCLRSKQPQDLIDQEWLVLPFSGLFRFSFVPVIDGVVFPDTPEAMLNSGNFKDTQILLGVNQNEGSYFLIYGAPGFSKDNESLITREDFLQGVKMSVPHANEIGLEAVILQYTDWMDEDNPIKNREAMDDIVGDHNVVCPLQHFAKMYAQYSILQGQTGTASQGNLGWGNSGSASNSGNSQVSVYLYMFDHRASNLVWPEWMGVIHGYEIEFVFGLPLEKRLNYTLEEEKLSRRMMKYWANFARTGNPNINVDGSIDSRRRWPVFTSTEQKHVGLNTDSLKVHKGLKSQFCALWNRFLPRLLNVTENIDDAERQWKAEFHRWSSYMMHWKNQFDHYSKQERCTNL

Mus musculus [2] = experiment: Toxicity in albino Swiss CD-1 mouse assessed as decrease in impairment of motor coordination at 24 rpm at 30 mg/kg, ip administered 1 hr before test by rotarod test; type: organism-based; parameters: dose 30 mg/kg, route intraperitoneal; scale not given: the % may be the effect or the level left; details: in vivo
[3] = target: Amyloid-beta precursor protein (Homo sapiens) (UniProt P05067); experiment: Inhibition of self-induced beta-amyloid (1 to 42) (unknown origin) aggregation by thioflavin-T assay
Chain of Amyloid-beta precursor protein (Homo sapiens) (P05067 whole entry): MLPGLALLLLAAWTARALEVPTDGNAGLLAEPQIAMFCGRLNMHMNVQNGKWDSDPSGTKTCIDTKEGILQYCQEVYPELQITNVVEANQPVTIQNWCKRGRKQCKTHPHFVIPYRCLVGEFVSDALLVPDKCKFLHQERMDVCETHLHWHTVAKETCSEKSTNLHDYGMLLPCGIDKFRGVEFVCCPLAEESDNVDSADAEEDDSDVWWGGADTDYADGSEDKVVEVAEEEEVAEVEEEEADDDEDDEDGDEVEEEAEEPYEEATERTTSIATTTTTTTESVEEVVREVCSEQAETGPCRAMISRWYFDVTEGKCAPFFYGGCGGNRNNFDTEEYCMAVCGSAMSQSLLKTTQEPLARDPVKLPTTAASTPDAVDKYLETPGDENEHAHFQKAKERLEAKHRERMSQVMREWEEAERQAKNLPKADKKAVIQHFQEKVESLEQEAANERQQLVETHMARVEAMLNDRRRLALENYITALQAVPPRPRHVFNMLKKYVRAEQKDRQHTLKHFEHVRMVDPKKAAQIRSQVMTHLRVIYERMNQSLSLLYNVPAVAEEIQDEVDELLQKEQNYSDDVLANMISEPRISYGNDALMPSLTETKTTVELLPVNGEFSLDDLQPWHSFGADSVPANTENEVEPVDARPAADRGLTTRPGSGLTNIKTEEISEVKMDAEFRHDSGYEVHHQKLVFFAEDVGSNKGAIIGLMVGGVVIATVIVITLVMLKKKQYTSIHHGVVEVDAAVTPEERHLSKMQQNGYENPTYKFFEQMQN

Mus musculus [4] = experiment: Toxicity in albino Swiss CD-1 mouse assessed as decrease in impairment of motor coordination at 6 to 18 rpm at 30 to 100 mg/kg, ip administered 1 hr before test by rotarod test; type: organism-based; parameters: dose 30-100 mg/kg, route intraperitoneal; details: in vivo
Mus musculus [5] = experiment: Effect on scopolamine-induced cognitive dysfunction in albino Swiss CD-1 mouse assessed as reduction in step-through latency time during retention trial at 5 to 30 mg/kg, ip administered 1 hr before the acquisition trial measured 24 hrs after acquisition trial over 180 seconds by passive avoidance test; type: functional, organism-based
Mus musculus [6] = experiment: Toxicity in albino Swiss CD-1 mouse assessed as decrease in impairment of motor coordination at 24 rpm at 100 mg/kg, ip administered 1 hr before test by rotarod test; type: organism-based; parameters: dose 100 mg/kg, route intraperitoneal; details: in vivo
Mus musculus [7] = experiment: Sedative activity in albino Swiss CD-1 mouse assessed as decrease in spontaneous locomotor activity at 30 mg/kg, ip administered 1 hr before test measured at 18 to 30 mins of test; type: ADME, organism-based; parameters: dose 30 mg/kg, route intraperitoneal; details: in vivo
Mus musculus [8] = experiment: Effect on scopolamine-induced cognitive dysfunction in albino Swiss CD-1 mouse assessed as reduction in step-through latency time at 5 to 30 mg/kg, ip administered 1 hr before the acquisition trial by passive avoidance test; type: functional, organism-based
Mus musculus [9] = experiment: Sedative activity in albino Swiss CD-1 mouse assessed as decrease in spontaneous locomotor activity at 30 mg/kg, ip administered 1 hr before test measured up to 6 mins of test; type: ADME, organism-based; parameters: dose 30 mg/kg, route intraperitoneal; details: in vivo
[10] = PAMPA, 2 h
[11] = target: Cholinesterase (Equus caballus) (UniProt P81908); experiment: Inhibition of horse serum BChE using butyrylthiocholine iodide as substrate preincubated at 0.5 to 1 uM for 5 mins by Lineweaver-Burk plot method
Chain of Cholinesterase (Equus caballus) (P81908 whole entry): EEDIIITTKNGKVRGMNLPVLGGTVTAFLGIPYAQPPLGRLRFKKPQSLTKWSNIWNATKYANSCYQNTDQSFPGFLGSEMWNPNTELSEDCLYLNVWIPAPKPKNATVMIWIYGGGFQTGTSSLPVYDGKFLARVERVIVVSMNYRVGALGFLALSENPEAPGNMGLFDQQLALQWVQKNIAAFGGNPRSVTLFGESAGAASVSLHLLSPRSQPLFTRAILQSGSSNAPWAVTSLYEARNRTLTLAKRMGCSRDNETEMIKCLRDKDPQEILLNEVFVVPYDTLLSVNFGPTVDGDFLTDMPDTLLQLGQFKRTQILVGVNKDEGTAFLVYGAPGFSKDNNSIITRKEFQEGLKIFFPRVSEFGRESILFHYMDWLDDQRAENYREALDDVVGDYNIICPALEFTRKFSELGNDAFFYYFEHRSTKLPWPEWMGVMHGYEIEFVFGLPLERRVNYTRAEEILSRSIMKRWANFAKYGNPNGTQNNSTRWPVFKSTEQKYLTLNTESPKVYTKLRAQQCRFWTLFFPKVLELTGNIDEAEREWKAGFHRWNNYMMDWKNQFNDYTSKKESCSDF

[12] = target: Acetylcholinesterase (Electrophorus electricus) (UniProt O42275); details: 5 to 10 uM
[13] = target: Cholinesterase (Equus caballus) (UniProt P81908); experiment: Inhibition of horse serum BChE using butyrylthiocholine iodide as substrate preincubated at 10^-4 mol/L for 5 mins by Ellman method

Chain of Cholinesterase (P81908 whole entry): as above

| Structure (SMILES) | IC50 (Cholinesterase) | IC50 (Acetylcholinesterase) | further results |
| --- | --- | --- | --- |
| c1ccc(CN2CCC(NCCCCCCn3ccc4ccccc43)CC2)cc1 | 15.3 µM | 0.01 µM | – |
| O=C1c2ccccc2C(=O)N1CCCCCCNC1CCN(Cc2ccccc2)CC1 | 12.8 µM | 45.4 µM | – |
| COc1ccc(CN2CCC(NCCCCCCN3C(=O)c4ccccc4C3=O)CC2)cc1 | 7.39 µM | – | inhibition [1]: < 60% |
| Fc1ccccc1CN1CCC(NCCCCCCn2ccc3ccccc32)CC1 | 3.41 µM | 42 µM | – |
| O=C1c2ccccc2C(=O)N1CCCCCCCCNC1CCN(Cc2cccc(Cl)c2)CC1 | 0.72 µM | – | Activity (Mus musculus [2]): 38%; inhibition [3]: Dose-dependent effect; Activity (Mus musculus [4]): Non-toxic; Activity (Mus musculus [5]): Active; Activity (Mus musculus [6]): Toxic; inhibition [1]: < 60%; Activity (Mus musculus [7]): Toxic; Activity (Mus musculus [8]): Active; Activity (Mus musculus [9]): Non-toxic |
| c1ccc(CN2CCC(NCCCCCn3ccc4ccccc43)CC2)cc1 | 1.83 µM | 0.02 µM | – |
| O=C1c2ccccc2C(=O)N1CCCCCCNC1CCN(Cc2ccc(O)cc2)CC1 | 2.32 µM | 29.8 µM | – |
| COc1ccc(CN2CCC(NCCCCCCCCN3C(=O)c4ccccc4C3=O)CC2)cc1 | 5.65 µM | 43.3 µM | – |
| O=C1c2ccccc2C(=O)N1CCCCCCNC1CCN(Cc2ccccc2F)CC1 | 4 µM | 85.3 µM | – |
| O=C1c2ccccc2C(=O)N1CCCCCCCCNC1CCN(Cc2ccccc2F)CC1 | 1.87 µM | 43.4 µM | – |
| Oc1ccc(CN2CCC(NCCCCCCCCn3ccc4ccccc43)CC2)cc1 | 1.33 µM | – | inhibition [1]: < 60% |
| Fc1ccccc1CN1CCC(NCCCCCCCCn2ccc3ccccc32)CC1 | 0.93 µM | 29.6 µM | – |
| O=C1c2ccccc2C(=O)N1CCCCCCNC1CCN(Cc2cccc(Cl)c2)CC1 | 2.73 µM | 54.4 µM | – |
| c1ccc(CN2CCC(NCCCCCCCCn3ccc4ccccc43)CC2)cc1 | 1.08 µM | 70.1 µM | – |
| O=C1c2ccccc2C(=O)N1CCCNC1CCN(Cc2ccccc2)CC1 | 51.8 µM | 8.11 µM | – |
| Oc1ccc(CN2CCC(NCCCCCCn3ccc4ccccc43)CC2)cc1 | 1.78 µM | – | inhibition [1]: < 60% |
| CC(C)NCC(O)COc1cccc2ccccc12 (stereo not drawn) [PROPRANOLOL] | – | – | log Pe [10]: -3.5 |
| O=C1c2ccccc2C(=O)N1CCCNC1CCN(Cc2ccc(O)cc2)CC1 | 9.37 µM | 4.52 µM | inhibition [11]: Active; inhibition [12]: Active |
| c1ccc(CN2CCC(NCCCn3ccc4ccccc43)CC2)cc1 | 0.002 µM | – | inhibition [1]: < 60% |
| O=C1c2ccccc2C(=O)N1CCCNC1CCN(Cc2cccc(Cl)c2)CC1 | 4.53 µM | 68.3 µM | – |
| COc1ccc(CN2CCC(NCCCCCCn3ccc4ccccc43)CC2)cc1 | 0.52 µM | – | inhibition [1]: < 60% |
| Clc1cccc(CN2CCC(NCCCCCCn3ccc4ccccc43)CC2)c1 | 0.83 µM | 53.2 µM | – |
| COc1ccc(CN2CCC(NCCCN3C(=O)c4ccccc4C3=O)CC2)cc1 | 26.8 µM | – | inhibition [1]: < 60% |
| O=C1c2ccccc2C(=O)N1CCCCCCCCNC1CCN(Cc2ccccc2)CC1 | 1.98 µM | 17.7 µM | – |
| O=C1c2ccccc2C(=O)N1CCCCCCCCNC1CCN(Cc2ccc(O)cc2)CC1 | 0.81 µM | 23.5 µM | – |
| CC(=O)[C@H]1CC[C@H]2[C@@H]3CCC4=CC(=O)CC[C@]4(C)[C@H]3CC[C@]12C [PROGESTERONE] | – | – | log Pe [10]: -5.1 |
| Clc1cccc(CN2CCC(NCCCCCCCCn3ccc4ccccc43)CC2)c1 | 0.75 µM | 21.7 µM | – |
| O=C1c2ccccc2C(=O)N1CCCNC1CCN(Cc2ccccc2F)CC1 | 10.5 µM | 23.1 µM | – |
| COc1ccc(CN2CCC(NCCCCCCCCn3ccc4ccccc43)CC2)cc1 | 0.34 µM | – | inhibition [1]: < 60% |
| O=C1c2ccccc2C(=O)N1CCCCCNC1CCN(Cc2ccccc2)CC1 | – | 69 µM | inhibition [13]: < 60% |
